From the OPERA property sets (Mansouri et al. 2018)

Details: not given

SMILES	boiling point	log10 vapour pressure (mmHg)	melting point	ready biodegradability	log10 Henry constant (atm·m³/mol)	log10 Koa	log10 Koc (L/kg)	log10 biodegradation half-life (days)
CCOC(=O)NC	170 °C	-0.0435						
Nc1ccncn1			155 °C					
COc1ccc2c(C(=O)c3ccc(Cl)cc3)c(C)n(CC(=O)O)c2c1			242 °C					
C1=CC2CCC1C2	96 °C	1.59	45 °C					
FC(F)=C(Cl)C(F)(F)F	6.8 °C		-130 °C					
COc1cc(C=O)ccc1O	285 °C	-3.93	81.5 °C	readily biodegradable				
C[C@@H]1CCCC[C@@H]1C (racemic)			-70 °C					
CC(C)=C1OC(=O)C1(C)C	170 °C		-18 °C					
Cl[Si](Cl)(c1ccccc1)c1ccccc1	305 °C			not readily biodegradable				
O=[N+]([O-])Cc1ccccc1	226 °C							
O=C(Cl)/C=C/C(=O)Cl	159 °C	0.316						
CN(C(=O)N(C)c1ccccc1)c1ccccc1	350 °C		122 °C					
OCC1CCCCC1	183 °C		-43 °C					
CCC(Cl)[N+](=O)[O-] (stereo not drawn)	142 °C							
CCCN1C[C@H](CSC)C[C@@H]2c3cccc4[nH]cc(c34)C[C@H]21			208 °C					
O=C[C@H](O)[C@@H](O)[C@H](O[C@@H]1O[C@H](CO)[C@@H](O)[C@H](O)[C@H]1O)[C@H](O)CO			240 °C					
CC(=O)C1CC1	111 °C		-68.3 °C		-4.99			
COC(CBr)OC	149 °C							
Cc1ccc(O)c([N+](=O)[O-])c1			36.5 °C	not readily biodegradable	-4.83			
N#CC(C#N)=C(C#N)C#N			199 °C					
OC[C@H]1O[C@@H](n2cnc3cncnc32)[C@H](O)[C@@H]1O			181 °C					
O=C(O)c1cccc(S(=O)(=O)O)c1				not readily biodegradable				
CC(C)=CCCC=C(C)C	166 °C		-74.4 °C					
CCOC=O	54.4 °C	2.39	-79.6 °C		-3.41	2.19		

SMILES	boiling point	log10 vapour pressure (mmHg)	melting point	ready biodegradability	log10 Henry constant (atm·m³/mol)	log10 Koa	log10 Koc (L/kg)	log10 biodegradation half-life (days)
CCOc1ccc2c(c1)C(C)=CC(C)(C)N2				not readily biodegradable				
O=C1c2ccccc2C(=O)C1c1ccccc1			150 °C					
CN(C)P(=O)(N(C)C)N(C)C	232 °C	-1.34	7.2 °C	not readily biodegradable				
Clc1ccc(-c2c(Cl)cccc2Cl)cc1					-3.7	7.72		
CC(C)NC(=O)N1CC(=O)N(c2cc(Cl)cc(Cl)c2)C1=O		-8.43	136 °C		-8.51		2.85	
Cc1ccccc1Oc1cccnn1			78 °C					
CCN(CC)CCOC(=O)c1ccc(N)cc1.Cl			156 °C					
CCCCCCCCc1ccc(Nc2ccc(CCCCCCCC)cc2)cc1				not readily biodegradable				
CCCCCCCCCOCCCCCCCCC		-4.28						
Clc1ccc(Cl)c(-c2c(Cl)ccc(Cl)c2Cl)c1Cl					-4.06		6.01	
COc1cccc(OC)c1C#N	310 °C		119 °C					
NC(=O)c1cccc(Br)c1			155 °C					
CC(C)CCC(=O)c1ccoc1	196 °C							
Oc1c(Br)cc(Br)cc1Br	286 °C		95.5 °C	readily biodegradable				
O=C(O)c1ccc(C(=O)O)cc1		-5.04		readily biodegradable				
BrCCCCCBr	222 °C		-39.5 °C					
IC(I)=C(I)I			187 °C					
Clc1cc(Cl)cc(Oc2ccccc2)c1		-3						
CC(C)(C)CC(C)(C)c1ccc(O)cc1		-3.32	84.5 °C	not readily biodegradable				
Clc1ccc(Cc2ccccc2)cc1	299 °C		7.5 °C					
NS(=O)(=O)c1cc(C(=O)O)ccc1Cl			257 °C					
CCC(N)Cc1c[nH]c2ccccc12 (stereo not drawn)			97 °C					
CN(C)c1ccccc1	193 °C	-0.155	2.5 °C	not readily biodegradable			2.26	
O=C(Cl)c1ccc2ccccc2c1	305 °C		51 °C					

SMILES	boiling point	log10 vapour pressure (mmHg)	melting point	ready biodegradability	log10 Henry constant (atm·m³/mol)	log10 Koa	log10 Koc (L/kg)	log10 biodegradation half-life (days)
S=C=Nc1ccc(N=C=S)cc1			132 °C					
CCCCC=C(C)C	123 °C	1.25						
O=C(O)CCCCl			16 °C					
CC[N+](CC)(CCOc1ccc(C(C)(C)CC(C)(C)C)cc1)Cc1ccccc1.[Cl-]			113 °C					
CCCC/C=C\CCCCCCCCCC=O	250 °C							
ClC/C=C/CCl	155 °C	0.574	-14.2 °C					
O=[N+]([O-])c1ccc(C(F)(F)F)cc1			39 °C					
CC1CCCC(C)C1O (stereo not drawn)	176 °C		32.5 °C					
CCC#CCCO	163 °C			readily biodegradable				
FC(F)OC(F)F	6.35 °C		-123 °C					
O=C[O-].[Na+]			253 °C					
Cn1c([N+](=O)[O-])cnc1COC(N)=O			168 °C					
Clc1ccc(OCOCC#CI)cc1				not readily biodegradable				
C#C[C@]1(OC(C)=O)CC[C@H]2[C@@H]3CCC4=C/C(=N/O)CC[C@@H]4[C@H]3CC[C@@]21CC			216 °C					
CNCCCC12CCC(c3ccccc31)c1ccccc12			93 °C					
Cc1cc2c(cc1C)CCCC2	252 °C		10 °C					
c1cnc2c(c1)CCCC2	222 °C							
C1=CSCC1	112 °C							
BrCCI	163 °C		28 °C					
CC(=O)OCCN(C)C	152 °C							
CCCCCCCCC(=O)N(CCO)CCO				readily biodegradable				
CCC1CCC1	70.8 °C		-143 °C					
O=Cc1cccc(C(=O)O)c1			174 °C					
Cc1cccc(C)c1NC(=O)c1ccc[nH]c1=O			266 °C					

SMILES	boiling point	log10 vapour pressure (mmHg)	melting point	ready biodegradability	log10 Henry constant (atm·m³/mol)	log10 Koa	log10 Koc (L/kg)	log10 biodegradation half-life (days)
ClCC(Cl)(Cl)CCl	165 °C	0.484		not readily biodegradable				
CC(=O)OCCOC(C)=O	190 °C	-1.11	-31 °C	readily biodegradable				
CCCc1ccccc1C	185 °C	-0.0027	-60.3 °C					0.477
Clc1ccc(-c2c(Cl)cccc2Cl)c(Cl)c1					-3.85			
Cc1cc(C(C)(C)C)c(C)cc1O	264 °C		71.2 °C					
CC[C@@H](C(=O)[C@@H](C)[C@@H](O)[C@H](C)[C@@H]1O[C@@H]([C@@H](CC)C(=O)O)CC[C@@H]1C)[C@H]1O[C@]2(C=C[C@@H](O)[C@]3(CC[C@@](C)([C@H]4CC[C@](O)(CC)[C@H](C)O4)O3)O2)[C@H](C)C[C@@H]1C			113 °C					
CC(Cc1ccc(C(C)(C)C)cc1)CN1CCCCC1 (stereo not drawn)		-3.89						
CC(CC(C)(C)C)CC(C)(C)CC(C)(C)C (stereo not drawn)				not readily biodegradable				
Brc1ccc(Oc2cccc(Br)c2)cc1						8.57		
COc1cccc(OC)c1C			40 °C					
C#CC(C)C	26.3 °C		-89.7 °C					
CC(C)OP(=O)(OC(C)C)OC(C)C	219 °C							
CCC(C)C(C)C (stereo not drawn)	89.7 °C	1.84						0.845
CNC(=O)Nc1ccc(OC)c(Cl)c1							1.84	
O=C(O)c1cccc(Cl)c1[N+](=O)[O-]			238 °C					
Nc1ncnc2c1ncn2[C@@H]1O[C@@H]2COP(=O)(O)O[C@H]2[C@H]1O			220 °C					
Cc1ccc(O)c(Cl)c1C	188 °C		27 °C					
Cc1cc2c(cc1O)[C@@]1(C)CCCC(C)(C)[C@@H]1CC2=O			250 °C					
BrCCCCCCCBr	263 °C		41.7 °C					
O=C(O)Cc1ccccc1F			63 °C					
CCOC(=O)/C=C1/SC(N2CCCCC2)C(=O)N1C (stereo not drawn)			140 °C					
CC1CC(C)CC(O)C1 (stereo not drawn)	187 °C		11.6 °C					
CCCCC(C)C(C)O (stereo not drawn)	166 °C							
CC(C)(C)N(NC(=O)c1ccccc1)C(=O)c1ccccc1			178 °C					

SMILES	boiling point	log10 vapour pressure (mmHg)	melting point	ready biodegradability	log10 Henry constant (atm·m³/mol)	log10 Koa	log10 Koc (L/kg)	log10 biodegradation half-life (days)
c1ccc(N=Nc2ccccc2)cc1	293 °C	-3.44	68.2 °C	not readily biodegradable			3.3	
CC(=O)c1ccc(O)cc1O			146 °C					
CC(C)CO[N+](=O)[O-]	123 °C	0.919			-2.65			
CCCCCCI	181 °C	0.147	-74.2 °C	readily biodegradable	-1.55			
C=CCCCCCCC(=O)O			5 °C					
CN(C)P(=O)(OP(=O)(N(C)C)N(C)C)N(C)C		-3	17 °C					
O=C(/C=C/c1cccc([N+](=O)[O-])c1)c1ccccc1			146 °C					
O=S(O)c1ccccc1			84 °C	not readily biodegradable				
Fc1c(F)c(F)c(C(F)(F)F)c(F)c1F	104 °C	1.46	-65.6 °C					
CC1(C)CC(=O)NC(=O)C1			145 °C					
CC(=O)CCCC(=O)O	274 °C		13.5 °C					
COc1cc(Cl)c(Cl)c(Cl)c1O		-2.73					2.8	
FC(F)C(F)(F)C(F)Cl (stereo not drawn)	28.1 °C		85 °C					
CC(=O)CCc1ccco1	203 °C							
CCCCCCCCCCCCCCCCCC(=O)OCCCCC			30 °C					
ClC(COCC(Cl)C(Cl)(Cl)Cl)C(Cl)(Cl)Cl (stereo not drawn)			-50 °C	not readily biodegradable				
C[C@H]1C[C@H]2[C@@H]3CCC4=CC(=O)C=C[C@]4(C)[C@H]3C(=O)C[C@]2(C)[C@@]1(O)C(=O)CO			202 °C					
CC1OC(=O)C=C2C3=C(OC(C)(C)CC3)C(=O)C(O)=C21 (stereo not drawn)			230 °C					
CCCCCCC(=O)OC(=O)CCCCCC	270 °C		-12.4 °C					
CCC(C)(CC)CC	118 °C	1.36	-90.9 °C					
Clc1ccc(Oc2ccc(Cl)c(Cl)c2)cc1		-3.98						
CN1CCC(CCCC2CCN(C)CC2)CC1			13.7 °C					
C[C@]12C=C(C=O)C(=O)C=C1CC[C@@H]1[C@@H]2[C@H](O)C[C@@]2(C)[C@H]1CC[C@]2(C)O			210 °C					

Same assay, conditions: fish

SMILES	log10 BCF	log10 biotransformation half-life (days)
Cc1ccc(O)c([N+](=O)[O-])c1	0.95	
CN(C)P(=O)(N(C)C)N(C)C	-0.3	
Clc1ccc(-c2c(Cl)cccc2Cl)cc1		2.44
CC(C)NC(=O)N1CC(=O)N(c2cc(Cl)cc(Cl)c2)C1=O	2.53	
Clc1ccc(Cl)c(-c2c(Cl)ccc(Cl)c2Cl)c1Cl		2.34
Oc1c(Br)cc(Br)cc1Br	2.71	
CC(C)(C)CC(C)(C)c1ccc(O)cc1	2.46	-0.04
CN(C)c1ccccc1	0.9	-0.96
ClCC(Cl)(Cl)CCl	1.57	-0.28
Clc1ccc(-c2c(Cl)cccc2Cl)c(Cl)c1		2.47
CC(CC(C)(C)C)CC(C)(C)CC(C)(C)C (stereo not drawn)	3.82	1.81
COc1cc(Cl)c(Cl)c(Cl)c1O	1.97	
ClC(COCC(Cl)C(Cl)(Cl)Cl)C(Cl)(Cl)Cl (stereo not drawn)	3.28	
